Source: patent US5002958A, “Hypotensive agent” (priority 1987, dated 1991)
Counter-ions that a name gives are not always drawn.

Legend:
[1] = system: dogs suffering from Goldblatt hypertension; assay: Effect of single oral administration on blood pressure of dogs suffering from Goldblatt hypertension; format: in vivo, Female beagles; details: 10 mg/kg oral; for reduction in the blood pressure / blood pressure after 3 h: once, after 3 h; for reduction in the blood pressure: result in words; for blood pressure after 3 h / blood pressure before administration: systolic pressure; for blood pressure after 3 h: control group 201±3 mmHg, unchanged after 5 h; for blood pressure before administration: artery of the tail
Method: Nicardipine hydrochloride was used as a control. The dose was 5 ml/kg.

[2] = Acute toxicity (LD50) in mice; details: mouse, in vivo, Mice (ICR)
[3] = Acute toxicity (LD50) in rats; details: rat, in vivo, Rats (SD)
[4] = Acute toxicity (LD50) in dogs; details: dog, in vivo, po, Dogs (Beagles)
[5] = Solubility (physico-chemical properties); format: physicochemical
[6] = system: dogs suffering from Goldblatt hypertension; details: 10 mg/kg oral
Method: Nicardipine hydrochloride was used as a control. The dose was 5 ml/kg. Commercially available tablets were given as they were by oral administration. Female beagles suffering from Goldblatt hypertension of "one clip one kidney" type were used. […] The blood pressure and heart rate were measured in the artery of the tail of each dog in a closed manner with a device for continuously measuring the systolic pressure (SCS-301; a product of Shimadzu Seisakusho Ltd.). […] The effects of eperisone hydrochloride given once by oral administration on the blood pressure and heart beat were compared with those of nicardipine hydrochloride. The nine beagles were divided into three groups, i.e. a control group, a group to which 10 mg/kg of eperisone hydrochloride was given and another group to which 10 mg/kg of nicardipine hydrochloride was given. Nine beagles were subjected to the tests of all three groups. Namely, administration was discontinued at intervals of one week according to Latin square. The blood pressure and heart rate were measured before administration and then at specified intervals from one hour to five hours after administration. The analysis of variance was conducted by the time series analysis. The test groups were compared with the control group by Dunnet's method.

CCc1ccc(C(=O)C(C)CN2CCCCC2)cc1 (stereo not drawn) [eperisone hydrochloride, Eperisone hydrochloride]
reduction in the blood pressure [1]: a significant reduction in the blood pressure was observed | blood pressure after 3 h [1]: 172±3 mmHg | blood pressure before administration [1]: 202±4 mmHg | LD50 ([2]; iv, female): 43.5 mg/kg | LD50 ([2]; iv, male): 43 mg/kg | LD50 ([2]; po, female): 940 mg/kg | LD50 ([2]; po, male): 1040 mg/kg | LD50 ([3]; iv, female): 60 mg/kg | LD50 ([3]; iv, male): 51 mg/kg | LD50 ([3]; po, female): 1300 mg/kg | LD50 ([3]; po, male): 1300 mg/kg | LD50 ([4]; female): > 750 mg/kg | LD50 ([4]; male): > 1080 mg/kg | solubility in acetic anhydride ([5]; acetic anhydride): relatively difficultly soluble | solubility in acetone ([5]; acetone): difficultly soluble | solubility in ethanol ([5]; ethanol): relatively easily soluble | solubility in ether ([5]; ether): scarcely soluble | solubility in water, methanol, chloroform or glacial acetic acid ([5]; water, methanol, chloroform or glacial acetic acid): easily soluble | solubility in water ([5]; water, agents used in the pharmacological experiment): water-soluble | heart rate before administration [6]: 97±5 beats/min

COC(=O)C1=C(C)NC(C)=C(C(=O)OCCN(C)Cc2ccccc2)C1c1cccc([N+](=O)[O-])c1 (stereo not drawn) [nicardipine hydrochloride, Nicardipine hydrochloride, reference compound]
reduction in the blood pressure [1]: a significant reduction in the blood pressure was also observed | blood pressure after 3 h [1]: 164±4 mmHg | blood pressure before administration [1]: 200±4 mmHg | heart rate before administration [6]: 106±7 beats/min
